# Experimental data taken from ChEMBL document CHEMBL1156687, “Design and microwave-assisted synthesis of 5-trifluoromethyl-4,5-dihydro-1H-pyrazoles: novel agents with analgesic and anti-inflammatory properties” (Eur J Med Chem, 2008).
# Calls of active or inactive are those of the source. The rule behind the calls is not given here.
# Assays:
# Mus musculus [1] = experiment: Increase in locomotor activity in albino mouse assessed as number of crossing at 1000 umol/kg; format: functional
# Mus musculus [2] = experiment: Analgesic activity in albino mouse assessed as response latency at 1500 ug/ml, sc after 30 mins by hot plate method; format: functional, organism-based
# Mus musculus [3] = experiment: Analgesic activity against formalin-induced neurogenic pain in albino mouse assessed as time spent on paw licking at 1500 umol/kg, sc administered 20 mins before formalin challenge assessed for 30 mins at 5 mins intervals; format: functional, organism-based
# Mus musculus [4] = experiment: Analgesic activity in albino mouse assessed as response latency at 1000 ug/ml, sc after 30 mins by hot plate method; format: functional, organism-based
# Mus musculus [5] = experiment: Analgesic activity against formalin-induced neurogenic pain in albino mouse assessed as time spent on paw licking at 1000 umol/kg, sc administered 20 mins before formalin challenge assessed for 30 mins at 5 mins intervals; format: functional
# Mus musculus [6] = experiment: Analgesic activity against formalin-induced inflammatory pain in albino mouse assessed as time spent on paw licking at 1500 umol/kg, sc administered 20 mins before formalin challenge assessed for 30 mins at 5 mins intervals; format: functional, organism-based
# Mus musculus [7] = experiment: Analgesic activity in albino mouse assessed as number of falls from the rod at 1000 ug/ml, sc after 4 mins by rotarod test; format: functional
# Mus musculus [8] = experiment: Analgesic activity in albino mouse assessed as inhibition of carrageenan-induced paw edema at 1000 ug/ml; format: functional; set-up: scale not given: the % may be the effect or the level left
# Mus musculus [9] = experiment: Analgesic activity in albino mouse assessed as falling latency at 1000 ug/ml, sc after 30 mins by rotarod test; format: functional
# Mus musculus [10] = experiment: Analgesic activity against formalin-induced inflammatory pain in albino mouse assessed as time spent on paw licking at 1000 umol/kg, sc administered 20 mins before formalin challenge assessed for 30 mins at 5 mins intervals; format: functional
# Mus musculus [11] = organism: Mus musculus; experiment: Toxicity against in albino mouse after 72 hrs; format: organism-based; conditions: in vivo
# Mus musculus [12] = experiment: Analgesic activity against formalin-induced neurogenic pain in albino mouse assessed as time spent on paw licking at 750 umol/kg, sc administered 20 mins before formalin challenge assessed for 30 mins at 5 mins intervals; format: functional
# Mus musculus [13] = experiment: Analgesic activity against formalin-induced inflammatory pain in albino mouse assessed as time spent on paw licking at 750 umol/kg, sc administered 20 mins before formalin challenge assessed for 30 mins at 5 mins intervals; format: functional
# Mus musculus [14] = experiment: Analgesic activity against formalin-induced inflammatory pain in albino mouse assessed as time spent on paw licking at 25 umol/kg, sc administered 20 mins before formalin challenge assessed for 30 mins at 5 mins intervals; format: functional, organism-based
# Mus musculus [15] = experiment: Analgesic activity against formalin-induced inflammatory pain in albino mouse assessed as time spent on paw licking at 75 umol/kg, sc administered 20 mins before formalin challenge assessed for 30 mins at 5 mins intervals; format: functional, organism-based
# Mus musculus [16] = experiment: Analgesic activity against formalin-induced inflammatory pain in albino mouse assessed as time spent on paw licking at 250 umol/kg, sc administered 20 mins before formalin challenge assessed for 30 mins at 5 mins intervals; format: functional, organism-based
# Mus musculus [17] = experiment: Increase in locomotor activity in albino mouse assessed as number of crossing at 1500 umol/kg; format: functional
smiles,measurement,setting,value
Cc1c(N(C)CS(=O)(=O)[O-])c(=O)n(-c2ccccc2)n1C.[Na+] [DIPYRONE SODIUM],Activity,Mus musculus [1],87.7
same,Activity,Mus musculus [2],Active
same,Activity,Mus musculus [3],Active
CCC1=NN(C(N)=O)C(O)(C(F)(F)F)C1 (centres undefined),Activity,Mus musculus [4],inactive
same,Activity,Mus musculus [5],87.9%
same,Activity,Mus musculus [1],165.6
same,Activity,Mus musculus [6],Active
same,Activity,Mus musculus [7],3.7
same,Activity,Mus musculus [8],43.7%
same,Activity,Mus musculus [9],112.5 s
same,Activity,Mus musculus [3],Active
same,Activity,Mus musculus [10],98.2%
NC(=O)N1N=CCC1(O)C(F)(F)F (centres undefined),Activity,Mus musculus [5],32.8%
same,Activity,Mus musculus [10],70.8%
CC1=NN(C(N)=O)C(O)(C(F)(F)F)C1 (centres undefined),Activity,Mus musculus [5],23.3%
same,Activity,Mus musculus [10],55.5%
CC(C)C1=NN(C(N)=O)C(O)(C(F)(F)F)C1 (centres undefined),Activity,Mus musculus [11],Non-toxic
same,Activity,Mus musculus [12],51.9%
same,Activity,Mus musculus [13],67%
same,Activity,Mus musculus [14],Active
CCCC1=NN(C(N)=O)C(O)(C(F)(F)F)C1 (centres undefined),Activity,Mus musculus [15],Active
same,Activity,Mus musculus [12],48.2%
same,Activity,Mus musculus [16],inactive
same,Activity,Mus musculus [13],70.1%
NC(=O)c1ccccc1O [SALICYLAMIDE],Activity,Mus musculus [3],inactive
same,Activity,Mus musculus [17],102.1
CC1C=NN(C(N)=O)C1(O)C(F)(F)F (centres undefined),Activity,Mus musculus [11],Non-toxic
same,Activity,Mus musculus [4],inactive
same,Activity,Mus musculus [5],74.6%
same,Activity,Mus musculus [1],167.3
same,Activity,Mus musculus [6],Active
same,Activity,Mus musculus [7],5.1
same,Activity,Mus musculus [8],34.6%
same,Activity,Mus musculus [9],62.6 s
same,Activity,Mus musculus [3],Active
same,Activity,Mus musculus [10],97.2%
CC(C)(C)C1=NN(C(N)=O)C(O)(C(F)(F)F)C1 (centres undefined),Activity,Mus musculus [5],59.1%
same,Activity,Mus musculus [10],72.9%
NC(=O)N1N=C(c2ccccc2)CC1(O)C(F)(F)F (centres undefined),Activity,Mus musculus [5],10%
same,Activity,Mus musculus [10],8.2%
NC(=O)N1N=C(c2ccc(Br)cc2)CC1(O)C(F)(F)F (centres undefined),Activity,Mus musculus [5],33.3%
same,Activity,Mus musculus [10],47.3%
CCCCC1=NN(C(N)=O)C(O)(C(F)(F)F)C1 (centres undefined),Activity,Mus musculus [12],46%
same,Activity,Mus musculus [13],-22.3%
